Patent US20110280815A1, “COMPOSITION FOR INHIBITING MELANIN PRODUCTION AND APPLICATION THEREOF” (priority 2010, published 2011)
Read-outs that look alike come from different tables or passages of the source.

Key:
[1] = tested on: human epidermal melanocyte (HEM); assay: Inhibiting melanin in cell line model, human epidermal melanocyte (HEM); format: cell-based; details: 200 μg/mL in medium, 72 hours, compared with blank control group (FIG. 5)
Description: (§1) In this example, the tyrosinase inhibitor of the present invention was used to inhibit melanin production in melanocytes. The cell lines used in this example are mouse melanoma (B16-F1; ATCC CRL-6323) and human epidermal melanocyte (HEM). After 72 hours, cells and cell culture medium were collected separately. Then, the collected cells were destroyed by ultrasonic for melanin examination.

[2] = tested on: B16-F1 cells; assay: Inhibiting melanin in cell line model, mouse melanoma B16-F1; format: cell-based; details: for inhibition of melanin production of mouse melanoma (microscopic image): 200 μg/ml, cultured 72 hours (FIG. 2); for inhibition at 200 µg/mL: Mus musculus, B16-F1, 200 μg/mL in medium
Description: as §1

[3] = tested on: tyrosinase; assay: Inhibiting tyrosinase (L-Dopa oxidation, dopachrome absorption at 492 nm); format: biochemical; details: series diluted sample, 0.1 U tyrosinase, 1 mM L-Dopa, 37° C., compared with blank control group (FIG. 1)
Description: In this example, 90 μL of 0.1 U tyrosinase solution was added in to the wells of a 96-well plate. Then, 50 μL of a series diluted sample was added into the wells as an experimental group or as a blank control group, wherein said sample is MOPS, SB-12(N-Dodecyl-N,N-dimethyl-3-ammonio-1-propanesulfonate), ACES or Tris-HCl, and 0.1 M phosphate buffer and a substance lysis solution were used as blank tests for the experimental group and the blank control group, respectively. Each sample in the experiment was at least triplicated. The test plate was placed at 37° C., 400 rpm for 5 min to mix the contents thereof homogeneously. Then, the test plate was placed into a machine for an absorption examination (492 nm). An average of two detected data was obtained as a background value. The test plate was then taken out, and 60 μL of 1 mM L-Dopa solution was added into each well. […] At this time, an average of two detected data was obtained as a test value.
In example 1, by using the tyrosinase inhibitor of the present invention, tyrosinase was inhibited to prevent melanin production. […] Accordingly, in this example, the absorption of the reaction at 492 nm was detected for examining the production of dopaquinone.
The data in the figure was calculated by the following formula: […]

[4] = 72 hours (FIG. 3), read-out: ability of inhibiting melanin production of B16-F1 cells
[5] = 72 hours, cell culture medium (FIG. 4), read-out: ability of inhibiting melanin secretion of B16-F1 cells

## NC(=O)CNCCS(=O)(=O)O [ACES, N-(2-Acetamido)-2-aminoethanesulfonic acid]
[1]
  inhibition rate of melanin production of human epidermal melanocyte: inhibition rate was increased
[2]
  inhibition of melanin production of mouse melanoma (microscopic image): significantly inhibit
[2]; [4]
  inhibition at 200 µg/mL: 35%
[2]; [5]
  inhibition at 200 µg/mL: 38.9%
[3]
  inhibition of tyrosinase activity: significantly inhibit the activity of tyrosinase

## O=S(=O)(O)CCCN1CCOCC1 [MOPS, 3-(N-Morpholino) propanesulfonic acid]
[1]
  inhibition rate of melanin production of human epidermal melanocyte: inhibition rate was increased
[2]
  inhibition of melanin production of mouse melanoma (microscopic image): significantly inhibit
[2]; [4]
  inhibition at 200 µg/mL: 41.7%
[2]; [5]
  inhibition at 200 µg/mL: 42.3%
[3]
  inhibition of tyrosinase activity: significantly inhibit the activity of tyrosinase
